Like-named read-outs stand apart in the source and are kept apart here.
Columns and labels:
ETR-253 = assay: MIC on MS agar medium, cross-resistance to herbicides; assay type: cell-based, Nicotiana tabacum
Text: (§1) Further, cross-resistance of a resistant strain tolerant to herbicides with various modes of action was examined. Sensitivity to fomesafen (trade mark: FLEX) and oxadiazon (trade mark: RONSTAR), which are photobleaching herbicide and accumulate protoporphyrin IX; pyrazoxyfen (trademark: PAICER) which is a chlorophyll synthesis inhibitor and causes bleaching; DPX-84 and bialaphos (trademark: BASTA) and glyphosate (trademark: ROUNDUP) which are an inhibitor of the amino acid synthesis; butachlor (trademark: MACHETE) which is a protein synthesis inhibitor; propanil (trademark: STAM) which is an inhibitor of light synthesis photochemical system II and paraquat (trademark: PREEGLOX) which is an inhibitor of photosystem I and produces an active oxygen was compared. Into MS agar medium containing each herbicides, each resistant strain was transplanted and minimum inhibition concentration (MIC) was measured. […] From the above results, ETR-056 was thought to have resistance to an active oxygen caused by overproduction of superoxide dismutase, and ETR-253 was thought to have resistance to many herbicides caused by decreasing of a membrane permeability, and ETR-245 was thought to have resistance caused by mutation of a target enzyme or overproduction of a target enzyme.
(§2) MIC of compound A to the sensitive cell lines, ETR-056, ETR-245 and ETR-253 were measured.

Sensitive strain = assay: as above; assay type: cell-based, Nicotiana tabacum; conditions: Sensitive strain
Text: as §1, §2

ETR-245 = assay: as above; assay type: cell-based, Nicotiana tabacum
Text: as §1, §2

ETR-056 = assay: as above; assay type: cell-based, Nicotiana tabacum
Text: as §1, §2

[1] = target: T1, E. coli SASX38 strain having pCR-HC with tobacco wild type protoporphyrinogen oxidase cDNA (Nicotiana tabacum, UniProt O24163); assay: Growth inhibition of E. coli SASX38 (liquid culture with shaking); assay type: cell-based
T1 construct: expressed in transfected cells; host or cells: E. coli SASX38 (hemG-deficient) carrying pCR-HC
T1 sequence (O24163 51-548): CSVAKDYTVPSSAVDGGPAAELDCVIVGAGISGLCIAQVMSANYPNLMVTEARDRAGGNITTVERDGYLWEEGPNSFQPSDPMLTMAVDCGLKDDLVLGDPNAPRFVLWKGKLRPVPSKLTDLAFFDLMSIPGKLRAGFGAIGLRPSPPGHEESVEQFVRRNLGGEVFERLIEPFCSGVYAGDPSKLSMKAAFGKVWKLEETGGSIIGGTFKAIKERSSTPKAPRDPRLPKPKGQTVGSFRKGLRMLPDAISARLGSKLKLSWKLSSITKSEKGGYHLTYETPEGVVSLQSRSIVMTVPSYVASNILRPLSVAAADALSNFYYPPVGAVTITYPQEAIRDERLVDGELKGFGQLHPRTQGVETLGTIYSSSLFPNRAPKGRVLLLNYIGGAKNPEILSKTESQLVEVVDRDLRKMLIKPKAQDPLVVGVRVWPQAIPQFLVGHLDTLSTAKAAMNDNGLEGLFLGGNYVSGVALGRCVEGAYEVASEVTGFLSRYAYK
Procedure: (§3) The E. coli SASX38 strain containing either of the above-described two kinds of plasmid was cultured with shaking in LB liquid medium containing 50 μg/ml of ampicillin at 28° C. for overnight.

[2] = target: T2, E. coli SASX38 strain having pBAtPX-C with Arabidopsis thaliana wild type protoporphyrinogen oxidase gene (Arabidopsis thaliana, UniProt P55826); assay: as above; assay type: cell-based
T2 construct: expressed in transfected cells; host or cells: E. coli SASX38 (hemG-deficient) carrying pBAtPX-C (pBluescript SK(-))
T2 sequence (P55826 35-537): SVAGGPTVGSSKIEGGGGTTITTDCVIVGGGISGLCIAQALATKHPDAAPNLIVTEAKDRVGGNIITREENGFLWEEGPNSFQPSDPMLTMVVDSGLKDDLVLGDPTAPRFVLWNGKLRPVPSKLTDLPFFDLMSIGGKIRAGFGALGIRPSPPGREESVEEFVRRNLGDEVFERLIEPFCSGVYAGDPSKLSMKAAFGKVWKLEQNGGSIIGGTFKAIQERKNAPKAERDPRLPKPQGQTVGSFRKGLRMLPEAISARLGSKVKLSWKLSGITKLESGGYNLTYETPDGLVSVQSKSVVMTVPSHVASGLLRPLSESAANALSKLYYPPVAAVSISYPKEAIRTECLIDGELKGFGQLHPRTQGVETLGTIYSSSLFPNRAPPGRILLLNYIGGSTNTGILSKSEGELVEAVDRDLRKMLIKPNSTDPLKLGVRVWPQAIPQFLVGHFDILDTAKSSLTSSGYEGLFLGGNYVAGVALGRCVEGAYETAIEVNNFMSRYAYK
Procedure: as §3

[3] = tested on: E. coli SASX38 strain having pCR-RC with tobacco resistant type protoporphyrinogen oxidase gene; assay: as above; assay type: cell-based, Nicotiana tabacum; conditions: for R/S b) Tobacco: Resistant type/Wild type; for Superiority c): b/a: tobacco R/S over Arabidopsis thaliana R/S
Procedure: as §3

[4] = target: T3, E. coli SASX38 strain having pCR-RC with tobacco resistant type protoporphyrinogen oxidase gene (Nicotiana tabacum, UniProt O24163, A174P/A191P/A231V/T382S); assay: as above; assay type: cell-based
T3 construct: expressed in transfected cells; host or cells: E. coli SASX38 (hemG-deficient) carrying pCR-RC
Procedure: as §3

[5] = target: T4, E. coli SASX38 strain having pBAtPX-RC with Arabidopsis thaliana resistant type protoporphyrinogen oxidase cDNA (Arabidopsis thaliana, UniProt P55826, A220V); assay: as above; assay type: cell-based; conditions: for R/S a) Arabidopsis thaliana: Resistant type/Wild type
T4 construct: expressed in transfected cells; host or cells: E. coli SASX38 (hemG-deficient) carrying pBAtPX-RC (pBluescript SK(-))
Procedure: as §3

T4 sequence (P55826 35-537 A220V): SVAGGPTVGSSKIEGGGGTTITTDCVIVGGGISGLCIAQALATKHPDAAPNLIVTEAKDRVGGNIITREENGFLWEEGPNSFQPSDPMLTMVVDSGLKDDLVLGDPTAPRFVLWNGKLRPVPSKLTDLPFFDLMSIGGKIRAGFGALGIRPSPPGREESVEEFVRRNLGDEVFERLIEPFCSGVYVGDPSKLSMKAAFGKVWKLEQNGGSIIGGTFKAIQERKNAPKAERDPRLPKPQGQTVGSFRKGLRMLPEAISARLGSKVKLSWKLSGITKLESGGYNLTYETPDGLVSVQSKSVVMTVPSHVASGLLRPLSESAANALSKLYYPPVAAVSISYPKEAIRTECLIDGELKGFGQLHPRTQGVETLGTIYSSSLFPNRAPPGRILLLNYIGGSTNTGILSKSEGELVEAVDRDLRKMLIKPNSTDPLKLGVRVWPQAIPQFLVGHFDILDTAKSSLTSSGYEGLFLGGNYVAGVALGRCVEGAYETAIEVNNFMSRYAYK
T3 sequence (O24163 whole entry A174P/A191P/A231V/T382S): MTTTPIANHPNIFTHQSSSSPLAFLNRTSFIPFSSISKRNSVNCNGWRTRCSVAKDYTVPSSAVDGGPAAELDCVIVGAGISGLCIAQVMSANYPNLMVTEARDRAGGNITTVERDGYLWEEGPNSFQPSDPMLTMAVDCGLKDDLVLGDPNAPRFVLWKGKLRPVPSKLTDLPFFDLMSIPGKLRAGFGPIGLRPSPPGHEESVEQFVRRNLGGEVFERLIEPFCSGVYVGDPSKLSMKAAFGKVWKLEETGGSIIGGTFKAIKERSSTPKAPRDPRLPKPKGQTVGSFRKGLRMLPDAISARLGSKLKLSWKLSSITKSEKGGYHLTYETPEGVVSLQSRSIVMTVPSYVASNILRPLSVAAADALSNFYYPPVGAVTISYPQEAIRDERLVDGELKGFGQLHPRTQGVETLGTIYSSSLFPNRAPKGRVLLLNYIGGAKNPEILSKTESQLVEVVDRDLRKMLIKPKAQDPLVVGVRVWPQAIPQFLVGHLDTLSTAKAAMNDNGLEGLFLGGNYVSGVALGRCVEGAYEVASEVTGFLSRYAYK

Row | SMILES | MIC (ppm) (ETR-253) | MIC (ppm) (Sensitive strain) | MIC (ppm) (ETR-245) | MIC (ppm) (ETR-056) | IC50 [1] [nM] | IC50 [2] [nM] | R/S b) Tobacco [3] | Superiority c) [3] | IC50 [4] [nM] | IC50 [5] [nM] | R/S a) Arabidopsis thaliana [5] | IC50 ([1]; E. coli liquid culture method with shaking, read-out: I50 (nM) Tobacco Wild) [nM] | IC50 ([2]; E. coli liquid culture method with shaking, read-out: I50 (nM) Arabidopsis thaliana Wild) [nM]
1 | O=C(O)CNCP(=O)(O)O [glyphosate] | 1000 | 230 | 230 | 230 | – | – | – | – | – | – | – | – | –
2 | CS(=O)(=O)NC(=O)c1cc(Oc2ccc(C(F)(F)F)cc2Cl)ccc1[N+](=O)[O-] [fomesafen] | 4 | 0.4 | 4 | 4 | – | – | – | – | – | – | – | – | –
3 | C#CCOc1cc(-c2nn(C)c(OC(F)F)c2Cl)c(F)cc1Cl [Comp.D, 4-chloro-3-[4-chloro-2-fluoro-5-(2-propynyl)oxyphenyl]-5-difluoromethoxy-1-methyl-1H-pyrazole] | – | – | – | – | 0.027 | 0.14 | 25,000 | 12.5 | 670 | 280 | 2,000 | – | –
4 | CC(C)Oc1cc(-n2nc(C(C)(C)C)oc2=O)c(Cl)cc1Cl [oxadiazon] | 1000 | 1 | 1000 | 1000 | – | – | – | – | – | – | – | – | –
5 | C[C@H](NC(=O)[C@H](C)NC(=O)[C@@H](N)CCP(C)(=O)O)C(=O)O [bialaphos] | 10 | 10 | 1 | 1 | – | – | – | – | – | – | – | – | –
6 | CCCCOCN(C(=O)CCl)c1c(CC)cccc1CC [butachlor] | 100 | 100 | 100 | 100 | – | – | – | – | – | – | – | – | –
7 | CCOC(=O)C(C)Nc1cc(-c2nn(C)c(OC(F)F)c2Cl)c(Cl)cc1Cl (stereo not drawn) [Comp.B, ethyl 2-[5-(4-chloro-5-difluoromethoxy-1-methyl-1H-pyrazol-3-yl)-2,4-dichloro-phenylamino]propionate] | – | – | – | – | 2.2 | 21 | 9,100 | >10.6 | > 20000 | 18000 | 860 | – | –
8 | Cn1nc(-c2ccc(Cl)cc2F)c(Cl)c1OC(F)F [Comp.G, 4-chloro-3-(4-chloro-2-fluorophenyl)-5-difluorom ethoxy-1-methyl-1H-pyrazole] | – | – | – | – | 3.1 | 19 | 5,500 | 12.0 | 17000 | 8700 | 460 | – | –
9 | CCOC(=O)C(C)Oc1cc(-c2nn(C)c(OC(F)F)c2Cl)c(F)cc1Cl (stereo not drawn) [Comp.E, ethyl 2-[2-chloro-5-(4-chloro-5-difluoromethoxy-1-methyl-1H-pyrazol-3-yl)-4-fluorophenoxy]propionate] | – | – | – | – | 0.52 | 4.2 | 12,000 | 12.6 | 6300 | 4000 | 950 | – | –
10 | CCC(=O)Nc1ccc(Cl)c(Cl)c1 [propanil] | 100 | 100 | 100 | 100 | – | – | – | – | – | – | – | – | –
11 | C[n+]1ccc(-c2cc[n+](C)cc2)cc1 [paraquat] | 10 | 10 | 10 | 100 | – | – | – | – | – | – | – | – | –
12 | CC(C)OC(=O)c1cc(-c2nn(C)c(C(F)(F)F)c2Br)c(F)cc1Cl [Comp.F, 1-methylethyl 5-[4-bromo-1-methyl-5-(trifluoromethyl)-1H-pyrazol-3-yl]-2-chloro-4-fluorobenzoate] | – | – | – | – | – | – | 4,700 | 16.8 | 15000 | 6400 | 280 | 3.2 | 23
13 | Cc1nn(C)c(OCC(=O)c2ccccc2)c1C(=O)c1ccc(Cl)cc1Cl [pyrazoxyfen] | 200 | 100 | 100 | 100 | – | – | – | – | – | – | – | – | –
14 | COc1cc(-c2nn(C)c(OC(F)F)c2Cl)c(F)cc1Cl [Comp.C, 4-chloro-3-(4-chloro-2-fluoro-5-methoxyphenyl)-5-difluoromethoxy-1-methyl-1H-pyrazole] | – | – | – | – | 0.25 | 3 | 8,800 | 14.7 | 2200 | 1800 | 600 | – | –
15 | COC(=O)c1ccccc1CS(=O)(=O)NC(=O)Nc1nc(OC)cc(OC)n1 [DPX-84] | 0.1 | 0.01 | 0.01 | 0.01 | – | – | – | – | – | – | – | – | –

Source: patent publication US6905852B1, “Herbicide-resistant protoporphyrinogen oxidase isolated from Nicotiana tabacum” (Nihon Nohyaku Co., Ltd., priority 1997, dated 2005)
